Reference: publication PMC7416039 (Pharmacology Research & Perspectives, 2020)

Key:
[1] = molecular target: T1, human aldehyde dehydrogenase 2 (ALDH2) (Homo sapiens, UniProt P05091); assay: Reversible inhibition of ALDH2; assay type: biochemical
T1 sequence (P05091 18-517): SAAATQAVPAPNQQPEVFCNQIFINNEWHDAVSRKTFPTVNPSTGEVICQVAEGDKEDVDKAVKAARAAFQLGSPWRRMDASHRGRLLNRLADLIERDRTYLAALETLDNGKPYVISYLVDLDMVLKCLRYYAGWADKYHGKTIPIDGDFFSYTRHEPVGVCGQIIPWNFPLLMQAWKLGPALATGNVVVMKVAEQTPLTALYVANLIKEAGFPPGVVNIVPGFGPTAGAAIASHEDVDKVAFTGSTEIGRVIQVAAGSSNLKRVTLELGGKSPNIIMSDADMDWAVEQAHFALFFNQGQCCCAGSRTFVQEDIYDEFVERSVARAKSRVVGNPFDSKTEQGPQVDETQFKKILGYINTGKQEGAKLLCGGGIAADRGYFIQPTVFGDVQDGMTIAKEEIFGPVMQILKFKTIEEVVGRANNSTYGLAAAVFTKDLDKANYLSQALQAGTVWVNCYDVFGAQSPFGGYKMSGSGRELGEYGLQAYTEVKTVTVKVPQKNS

CYP2C9 [2] = molecular target: T2, CYP2C9 (Homo sapiens, UniProt P11712); assay: Direct inhibition of CYP isoforms in HLM
T2 sequence (P11712 whole entry, canonical isoform): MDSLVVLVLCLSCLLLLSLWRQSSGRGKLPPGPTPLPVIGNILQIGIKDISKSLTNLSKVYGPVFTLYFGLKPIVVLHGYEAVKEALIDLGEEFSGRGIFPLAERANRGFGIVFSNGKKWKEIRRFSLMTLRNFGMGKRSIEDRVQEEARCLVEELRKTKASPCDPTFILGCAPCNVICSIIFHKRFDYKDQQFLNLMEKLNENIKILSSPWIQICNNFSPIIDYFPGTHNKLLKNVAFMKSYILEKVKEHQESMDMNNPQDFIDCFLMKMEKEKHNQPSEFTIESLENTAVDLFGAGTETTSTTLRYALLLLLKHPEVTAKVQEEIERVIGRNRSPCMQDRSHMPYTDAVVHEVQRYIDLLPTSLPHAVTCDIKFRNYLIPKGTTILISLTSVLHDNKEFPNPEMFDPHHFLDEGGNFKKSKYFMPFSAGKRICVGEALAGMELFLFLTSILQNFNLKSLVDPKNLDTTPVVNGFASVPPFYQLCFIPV

CYP2C8 [3] = molecular target: T3, CYP2C8 (Homo sapiens, UniProt P10632); assay: Direct inhibition of CYP isoforms in HLM
T3 sequence (P10632 1-490): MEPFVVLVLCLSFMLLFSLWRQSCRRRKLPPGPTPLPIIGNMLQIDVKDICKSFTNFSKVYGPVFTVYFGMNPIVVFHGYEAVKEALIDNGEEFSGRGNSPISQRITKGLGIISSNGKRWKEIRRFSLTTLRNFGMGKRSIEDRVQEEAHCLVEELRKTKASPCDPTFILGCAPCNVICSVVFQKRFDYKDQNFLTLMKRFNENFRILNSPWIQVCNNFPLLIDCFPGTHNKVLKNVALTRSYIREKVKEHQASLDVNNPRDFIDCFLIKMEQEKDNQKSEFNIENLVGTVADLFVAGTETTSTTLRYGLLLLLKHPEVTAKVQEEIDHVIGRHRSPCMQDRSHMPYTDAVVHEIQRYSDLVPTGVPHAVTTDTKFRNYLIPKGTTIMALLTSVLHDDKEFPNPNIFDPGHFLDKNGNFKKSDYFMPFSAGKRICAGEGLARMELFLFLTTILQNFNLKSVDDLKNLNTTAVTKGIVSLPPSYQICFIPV

[4] = Metabolism of secnidazole in human liver microsomes; assay type: in vitro ADME; conditions: human, human liver microsomes, pH 7.4
human liver microsomes = assay: as above; assay type: in vitro ADME
CYP2D6 [5] = molecular target: T4, CYP2D6 (Homo sapiens, UniProt P10635); assay: Direct inhibition of CYP isoforms in HLM
T4 sequence (P10635 whole entry, canonical isoform): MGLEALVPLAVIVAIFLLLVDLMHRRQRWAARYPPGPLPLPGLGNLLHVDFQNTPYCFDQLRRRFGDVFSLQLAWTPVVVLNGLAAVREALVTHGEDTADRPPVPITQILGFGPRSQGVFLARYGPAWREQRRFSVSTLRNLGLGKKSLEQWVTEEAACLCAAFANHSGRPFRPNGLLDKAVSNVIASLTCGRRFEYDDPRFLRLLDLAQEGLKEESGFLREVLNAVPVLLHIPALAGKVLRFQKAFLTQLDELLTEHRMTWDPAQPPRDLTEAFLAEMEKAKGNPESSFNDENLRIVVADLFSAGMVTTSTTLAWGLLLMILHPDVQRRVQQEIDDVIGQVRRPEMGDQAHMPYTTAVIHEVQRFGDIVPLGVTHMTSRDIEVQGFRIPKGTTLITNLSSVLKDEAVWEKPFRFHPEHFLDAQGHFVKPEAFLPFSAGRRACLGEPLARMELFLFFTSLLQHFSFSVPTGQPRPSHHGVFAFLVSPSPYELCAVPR

CYP2B6 [6] = molecular target: T5, CYP2B6 (Homo sapiens, UniProt P20813); assay: Time-dependent inhibition of CYP isoforms in HLM
T5 sequence (P20813 1-491): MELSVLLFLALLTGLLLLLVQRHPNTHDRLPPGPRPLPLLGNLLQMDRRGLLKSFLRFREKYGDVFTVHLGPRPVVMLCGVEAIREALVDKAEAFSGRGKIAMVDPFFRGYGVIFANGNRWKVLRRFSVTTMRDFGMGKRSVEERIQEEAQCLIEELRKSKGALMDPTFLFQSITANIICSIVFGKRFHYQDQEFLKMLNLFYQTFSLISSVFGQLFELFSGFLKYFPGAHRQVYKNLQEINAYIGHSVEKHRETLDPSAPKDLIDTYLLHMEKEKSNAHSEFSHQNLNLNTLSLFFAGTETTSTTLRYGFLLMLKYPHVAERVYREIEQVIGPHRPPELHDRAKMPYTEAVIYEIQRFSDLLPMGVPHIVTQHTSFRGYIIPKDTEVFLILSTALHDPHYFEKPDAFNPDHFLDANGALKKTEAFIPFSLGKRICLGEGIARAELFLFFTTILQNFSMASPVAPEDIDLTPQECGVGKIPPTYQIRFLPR

[7] = tested on: cDNA‐expressed human CYP enzymes (Supersomes); assay: Metabolism of 1 μmol/L secnidazole by cDNA-expressed human CYP enzymes; assay type: in vitro ADME; conditions: 0-30 min
CYP1A2 [8] = molecular target: T6, CYP1A2 (Homo sapiens, UniProt P05177); assay: Time-dependent inhibition of CYP isoforms in HLM
T6 sequence (P05177 1-516): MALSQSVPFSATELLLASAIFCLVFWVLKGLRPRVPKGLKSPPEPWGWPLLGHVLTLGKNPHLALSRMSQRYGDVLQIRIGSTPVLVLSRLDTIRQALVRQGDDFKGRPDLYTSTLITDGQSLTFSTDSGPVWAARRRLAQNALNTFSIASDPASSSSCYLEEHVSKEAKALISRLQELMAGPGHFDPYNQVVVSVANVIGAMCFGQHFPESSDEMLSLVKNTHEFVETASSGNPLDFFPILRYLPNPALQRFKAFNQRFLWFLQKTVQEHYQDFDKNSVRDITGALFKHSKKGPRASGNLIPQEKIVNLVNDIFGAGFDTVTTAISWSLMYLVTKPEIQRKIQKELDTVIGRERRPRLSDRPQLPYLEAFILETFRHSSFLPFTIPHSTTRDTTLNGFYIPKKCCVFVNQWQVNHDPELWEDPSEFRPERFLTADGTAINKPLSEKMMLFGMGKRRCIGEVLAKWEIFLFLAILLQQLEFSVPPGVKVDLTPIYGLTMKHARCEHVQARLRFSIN

CYP2A6 [9] = molecular target: T7, CYP2A6 (Homo sapiens, UniProt P11509); assay: Time-dependent inhibition of CYP isoforms in HLM
T7 sequence (P11509 1-494): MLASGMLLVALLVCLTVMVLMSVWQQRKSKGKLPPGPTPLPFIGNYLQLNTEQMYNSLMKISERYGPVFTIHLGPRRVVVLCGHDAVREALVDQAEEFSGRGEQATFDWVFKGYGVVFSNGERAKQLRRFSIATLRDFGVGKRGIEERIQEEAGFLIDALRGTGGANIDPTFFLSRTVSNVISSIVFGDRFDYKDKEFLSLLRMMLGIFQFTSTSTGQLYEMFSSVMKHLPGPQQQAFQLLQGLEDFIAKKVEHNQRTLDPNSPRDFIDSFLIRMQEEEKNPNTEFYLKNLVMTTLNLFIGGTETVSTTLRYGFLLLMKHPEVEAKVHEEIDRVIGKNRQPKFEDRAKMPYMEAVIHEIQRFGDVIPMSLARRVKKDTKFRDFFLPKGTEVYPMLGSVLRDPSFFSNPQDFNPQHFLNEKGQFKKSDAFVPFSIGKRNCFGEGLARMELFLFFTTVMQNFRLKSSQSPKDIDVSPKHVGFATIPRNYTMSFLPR

CYP1A2 [10] = molecular target: T6, CYP1A2; assay: Direct inhibition of CYP isoforms in HLM
CYP2D6 [11] = molecular target: T4, CYP2D6; assay: Time-dependent inhibition of CYP isoforms in HLM
CYP2C19 [12] = molecular target: T8, CYP2C19 (Homo sapiens, UniProt P33261); assay: Time-dependent inhibition of CYP isoforms in HLM
T8 sequence (P33261 whole entry, canonical isoform): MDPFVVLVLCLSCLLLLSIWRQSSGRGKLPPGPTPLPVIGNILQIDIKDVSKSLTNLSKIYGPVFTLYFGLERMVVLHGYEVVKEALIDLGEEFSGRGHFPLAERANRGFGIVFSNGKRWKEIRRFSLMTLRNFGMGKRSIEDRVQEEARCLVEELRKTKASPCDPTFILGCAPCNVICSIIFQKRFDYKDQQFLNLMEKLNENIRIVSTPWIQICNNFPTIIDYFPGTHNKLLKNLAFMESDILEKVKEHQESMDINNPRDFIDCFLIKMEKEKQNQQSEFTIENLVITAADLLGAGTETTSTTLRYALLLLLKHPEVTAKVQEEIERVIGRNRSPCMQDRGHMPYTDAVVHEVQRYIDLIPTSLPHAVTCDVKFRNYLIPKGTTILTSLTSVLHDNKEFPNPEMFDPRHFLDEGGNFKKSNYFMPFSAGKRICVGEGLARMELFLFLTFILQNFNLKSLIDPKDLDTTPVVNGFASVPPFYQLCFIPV

CYP2A6 [13] = molecular target: T7, CYP2A6; assay: Direct inhibition of CYP isoforms in HLM
CYP2E1 [14] = molecular target: T9, CYP2E1 (Homo sapiens, UniProt P05181); assay: Direct inhibition of CYP isoforms in HLM
T9 sequence (P05181 whole entry, canonical isoform): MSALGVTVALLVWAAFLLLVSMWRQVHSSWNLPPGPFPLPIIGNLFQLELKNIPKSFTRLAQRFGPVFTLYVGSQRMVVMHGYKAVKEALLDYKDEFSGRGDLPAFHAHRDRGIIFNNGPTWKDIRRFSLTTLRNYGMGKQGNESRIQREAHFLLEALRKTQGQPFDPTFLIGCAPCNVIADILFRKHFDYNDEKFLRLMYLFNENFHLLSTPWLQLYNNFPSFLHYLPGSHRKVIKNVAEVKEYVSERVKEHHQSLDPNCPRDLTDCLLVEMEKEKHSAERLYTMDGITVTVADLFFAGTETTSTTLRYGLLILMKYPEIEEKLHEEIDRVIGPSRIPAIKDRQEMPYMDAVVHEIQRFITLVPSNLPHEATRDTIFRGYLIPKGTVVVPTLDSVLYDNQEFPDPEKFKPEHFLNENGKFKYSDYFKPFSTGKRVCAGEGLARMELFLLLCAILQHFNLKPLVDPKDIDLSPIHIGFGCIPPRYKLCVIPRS

CYP2B6 [15] = molecular target: T5, CYP2B6; assay: Direct inhibition of CYP isoforms in HLM
CYP2C19 [16] = molecular target: T8, CYP2C19; assay: Direct inhibition of CYP isoforms in HLM
[17] = molecular target: T1, human aldehyde dehydrogenase 2 (ALDH2); assay: Time-dependent inhibition of ALDH2; assay type: biochemical; conditions: for Time-dependent inhibition of ALDH2 (residual ALDH2 catalytic activity): 10 μmol/L secnidazole
CYP2E1 [18] = molecular target: T9, CYP2E1; assay: Time-dependent inhibition of CYP isoforms in HLM
[19] = cited from earlier work
CYP2C9 [20] = molecular target: T2, CYP2C9; assay: Time-dependent inhibition of CYP isoforms in HLM
[21] = Metabolism of secnidazole in human plasma in vitro; assay type: in vitro ADME
CYP2C8 [22] = molecular target: T3, CYP2C8; assay: Time-dependent inhibition of CYP isoforms in HLM

SMILES: O=c1c(-c2ccc(O)cc2)coc2cc(O[C@@H]3O[C@H](CO)[C@@H](O)[C@H](O)[C@H]3O)ccc12 [Daidzin]
- % Remaining ([1]; Daidzin 0.02 μmol/L): 106%
- NADH ([1]; Daidzin 0.02 μmol/L): 132 nmol/min/mg
- % Remaining ([1]; Daidzin 0.05 μmol/L): 102%
- NADH ([1]; Daidzin 0.05 μmol/L): 127 nmol/min/mg
- % Remaining ([1]; Daidzin 0.14 μmol/L): 93%
- NADH ([1]; Daidzin 0.14 μmol/L): 117 nmol/min/mg
- % Remaining ([1]; Daidzin 0.41 μmol/L): 96%
- NADH ([1]; Daidzin 0.41 μmol/L): 120 nmol/min/mg
- % Remaining ([1]; Daidzin 1.2 μmol/L): 76%
- NADH ([1]; Daidzin 1.2 μmol/L): 95 nmol/min/mg
- % Remaining ([1]; Daidzin 3.7 μmol/L): 57%
- NADH ([1]; Daidzin 3.7 μmol/L): 72 nmol/min/mg
- % Remaining ([1]; Daidzin 11 μmol/L): 27%
- NADH ([1]; Daidzin 11 μmol/L): 33 nmol/min/mg
- % Remaining ([1]; Daidzin 33 μmol/L): 16%
- NADH ([1]; Daidzin 33 μmol/L): 20 nmol/min/mg
- % Remaining ([1]; Daidzin 100 μmol/L): 7%
- NADH ([1]; Daidzin 100 μmol/L): 8 nmol/min/mg

SMILES: Cc1ncc([N+](=O)[O-])n1CC(C)O (centres unmarked) [secnidazole]
- IC50 (CYP2C9 [2]): > 5000 µM
- IC50 (CYP2C8 [3]): > 5000 µM
- Km [4]: > 6.4 mM
- metabolism in HLMs (in words) (human liver microsomes; concentrations up to 6400 µmol/L): very low metabolism
- Km (human liver microsomes; read-out: Km for M2 formation, rate linear with substrate concentration): > 6.4 mM
- IC50 (CYP2D6 [5]): > 5000 µM
- direct inhibition (in words) (CYP2D6 [5]; HLM, CYP2D6): some clear concentration‐dependent inhibition at higher concentration
- IC50 (CYP2B6 [6]): > 500 µM
- metabolism in cDNA‐expressed enzymes [7]: did not demonstrate conclusive evidence of any metabolism
- IC50 (CYP1A2 [8]): > 500 µM
- IC50 (CYP2A6 [9]): > 500 µM
- IC50 (CYP1A2 [10]): > 5000 µM
- IC50 (CYP2D6 [11]): > 500 µM
- IC50 [1]: 503 µM
- % Remaining ([1]; secnidazole 0.2 μmol/L): 94%
- NADH ([1]; secnidazole 0.2 μmol/L): 117 nmol/min/mg
- % Remaining ([1]; secnidazole 0.5 μmol/L): 90%
- NADH ([1]; secnidazole 0.5 μmol/L): 112 nmol/min/mg
- % Remaining ([1]; secnidazole 1.4 μmol/L): 90%
- NADH ([1]; secnidazole 1.4 μmol/L): 112 nmol/min/mg
- % Remaining ([1]; secnidazole 4.1 μmol/L): 100%
- NADH ([1]; secnidazole 4.1 μmol/L): 125 nmol/min/mg
- % Remaining ([1]; secnidazole 12.3 μmol/L): 110%
- NADH ([1]; secnidazole 12.3 μmol/L): 137 nmol/min/mg
- % Remaining ([1]; secnidazole 37 μmol/L): 96%
- NADH ([1]; secnidazole 37 μmol/L): 120 nmol/min/mg
- % Remaining ([1]; secnidazole 111.1 μmol/L): 79%
- NADH ([1]; secnidazole 111.1 μmol/L): 99 nmol/min/mg
- % Remaining ([1]; secnidazole 333.3 μmol/L): 63%
- NADH ([1]; secnidazole 333.3 μmol/L): 79 nmol/min/mg
- % Remaining ([1]; secnidazole 1000 μmol/L): 32%
- NADH ([1]; secnidazole 1000 μmol/L): 39 nmol/min/mg
- IC50 (CYP2C19 [12]): > 1000 µM
- IC50 (CYP2A6 [13]): > 5000 µM
- direct inhibition (in words) (CYP2A6 [13]; HLM, CYP2A6): some clear concentration‐dependent inhibition at higher concentration
- IC50 (CYP2E1 [14]): > 5000 µM
- IC50 (CYP2B6 [15]): > 5000 µM
- direct inhibition (in words) (CYP2B6 [15]; HLM, CYP2B6): some clear concentration‐dependent inhibition at higher concentration
- IC50 (CYP2C19 [16]): 3870 µM
- Time-dependent inhibition of ALDH2 (residual ALDH2 catalytic activity) ([17]; preincubation time 0.5): 104
- Time-dependent inhibition of ALDH2 (residual ALDH2 catalytic activity) ([17]; preincubation time 1): 103
- Time-dependent inhibition of ALDH2 (residual ALDH2 catalytic activity) ([17]; preincubation time 2): 101
- Time-dependent inhibition of ALDH2 (residual ALDH2 catalytic activity) ([17]; preincubation time 3): 104
- Time-dependent inhibition of ALDH2 (residual ALDH2 catalytic activity) ([17]; preincubation time 4): 101
- Time-dependent inhibition of ALDH2 (residual ALDH2 catalytic activity) ([17]; preincubation time 8): 110
- Time-dependent inhibition of ALDH2 (residual ALDH2 catalytic activity) ([17]; preincubation time 16): 113
- Time-dependent inhibition of ALDH2 (residual ALDH2 catalytic activity) ([17]; preincubation time 24): 131
- Time-dependent inhibition of ALDH2 (in words) ([17]; preincubated with ALDH2 enzyme and NAD+ from 1 to 24 minutes, secnidazole at 10 or 100 μmol/L): little or no time‐dependent inhibition
- IC50 (CYP2E1 [18]): > 500 µM
- cumulative urinary excretion of free and conjugated secnidazole [19]: approximately 50%
- IC50 (CYP2C9 [20]): > 500 µM
- metabolism in human plasma in vitro [21]: no evidence of secnidazole metabolism
- IC50 (CYP2C8 [22]): > 500 µM
